Data published in patent US7964627B2, “Amino arylsulfonamide compounds and their use as 5-HT6 ligands” (Suven Life Sciences Limited, priority 2007, dated 2011).

Columns and labels:
Human 5-HT6 receptor = biological target: T1, Human 5-HT6 receptor (Homo sapiens, UniProt P50406); assay: Binding assay for human 5-HT6 receptor ([3H]LSD radioligand); conditions: human recombinant receptor in HEK293 cells; for inhibition at 0.1 µM: 100 nM test compound, [3H]LSD 1.5 nM, read-out: % Inhibition of specific binding at 100 nM; for Ki: [3H]LSD
T1 construct: expressed in transfected cells; host or cells: HEK293 cells
Protocol: Compounds can be tested according to the following the procedures.
Receptor source: Human recombinant expressed in HEK293 cells
Radioligand: [^3H]LSD (60-80 Ci/mmol)
Final ligand concentration—[1.5 nM]
Non-specific determinant: Methiothepin mesylate—[0.1 μM]
Reference compound: Methiothepin mesylate
Positive control: Methiothepin mesylate
Reactions were carried out in […] TRIS-HCl (pH 7.4) containing 10 μM MgCl2, 0.5 mM EDTA for 60 minutes at 37° C. The reaction was terminated by rapid vacuum filtration onto glass fiber filters. Radioactivity trapped onto the filters was determined and compared to control values in order to ascertain any interactions of test compound(s) with the cloned serotonin 5-HT6 binding site.
Percent Inhibition of Specific Binding at 100 nM Concentrations
Literature Reference: Monsma F. J. Jr., et al., Molecular Cloning and Expression of Novel Serotonin Receptor with High Affinity for Tricyclic Psychotropic Drugs. Mol. Pharmacol. (43): 320-327 (1993).

[1] = Rodent pharmacokinetic study; type: in vivo, Male wistar rats; conditions: plasma, Wistar/Male rat, 10 mg/kg; for AUC(0-t) / Cmax / Tmax / half-life: vehicle water; for bioavailability: Oral vs Intravenous
Protocol: Male wistar rats (230-280 grams) obtained from NIN (National Institute of Nutrition, Hyderabad, India) were used as an experimental animal.
Three to five animals were housed in each cage. Animals were kept fasted over night and maintained on a 12 hours light/dark cycle. Three rats were dosed NCE (10 mg/Kg) orally and intravenously on day 0 and day 2.
At each time point blood was collected by jugular vein. Plasma was stored frozen at −20° C. until analysis. The concentrations of the NCE compound in plasma were determined using LC-MS/MS method.
Schedule time points: Pre dose 0.25, 0.5, 1, 1.5, 2, 3, 4, 6, 8, 10, 12 and 24 hours after dosing (n=3). The NCE compounds were quantified in plasma by validated LC-MS/MS method using solid phase extraction technique. NCE compounds were quantified in the calibration range of 2-2000 ng/ml in plasma. Study samples were analyzed using calibration samples in the batch and quality control samples spread across the batch.
Pharmacokinetic parameters Cmax, Tmax, AUCt, AUCinf, half life, volume of distribution, clearance, mean residence time and thereby oral bioavailability were calculated by non-compartmental model using software WinNonlin version 5.1.

[2] = Rodent brain penetration study (steady state); type: in vivo, Male Wister rats; conditions: Wistar, brain and plasma; Wister/Male rat, 10 mg/kg, Oral, vehicle water; read-out: Steady State Brain Penetration Cb/Cp
Male Wister rats = assay: Object recognition task model (NORT); type: in vivo; conditions: p.o.; for NORT Discriminative Index (DI), treatment: vehicle value in brackets in the cell; for NORT Inference: 10 and 30 mg/kg
Protocol: The cognition-enhancing properties of compounds of this invention were estimated using a model of animal cognition: the object recognition task model. Male Wister rats (230-280 grams) obtained from N.I.N. (National Institute of Nutrition, Hyderabad, India) were used as experimental animals. Four animals were housed in each cage. Animals were kept on 20% food deprivation before one day and given water ad libitum throughout the experiment and maintained on a 12 hours light/dark cycle. Also the rats were habituated to individual arenas for 1 hour in the absence of any objects.
One group of 12 rats received vehicle (1 mL/Kg) orally and another set of animals received compound of the formula (I) either orally or i.p., before one hour of the familiar (T1) and choice trial (T2).
The experiment was carried out in a 50×50×50 cm open field made up of acrylic. In the familiarization phase, (T1), the rats were placed individually in the open field for 3 minutes, in which two identical objects (plastic bottles, 12.5 cm height×5.5 cm diameter) covered in yellow masking tape alone (a1 and a2) were positioned in two adjacent corners, 10 cm. from the walls. After 24 hours of the (T1) trial for long-term memory test, the same rats were placed in the same arena as they were placed in T1 trial. Choice phase (T2) rats were allowed to explore the open field for 3 minutes in presence of one familiar object (a3) and one novel object (b) (Amber color glass bottle, 12 cm high and 5 cm in diameter). Familiar objects presented similar textures, colors and sizes. During the T1 and T2 trial, explorations of each object (defined as sniffing, licking, chewing or having moving vibrissae whilst directing the nose towards the object at a distance of less than 1 cm) were recorded separately by stopwatch. Sitting on an object was not regarded as exploratory activity, however, it was rarely observed. T1 is the total time spent exploring the familiar objects (a1+a2). T2 is the total time spent exploring the familiar object and novel object (a3+b).
The object recognition test was performed as described by Ennaceur, A., Delacour, J., 1988, A new one-trial test for neurobiological studies of memory in rats-Behavioral data, Behav. Brain Res., 31, 47-59.

rats = assay: Water maze, scopolamine induced reversal; type: in vivo; conditions: p.o.
Protocol: The water maze apparatus consisted of a circular pool (1.8 m diameter, 0.6 m high) constructed in black Perspex (TSE systems, Germany) filled with water (24±2° C.) and positioned underneath a wide-angled video camera to track animal. The 10 cm^2 perspex platform, lying 1 cm below the water surface, was placed in the centre of one of the four imaginary quadrants, which remained constant for all rats. The black Perspex used in the construction of the maze and platform offered no intramaze cues to guide escape behavior. By contrast, the training room offered several strong extramaze visual cues to aid the formation of the spatial map necessary for escape learning. An automated tracking system, [Videomot 2 (5.51), TSE systems, Germany] was employed. This program analyzes video images acquired via a digital camera and an image acquisition board that determined path length, swim speed and the number of entries and duration of swim time spent in each quadrant of the water maze.

[3] = test system: animal models for schizophrenia; conditions: Pouzet et al. 2002; cited from earlier work
5-HT6 receptor = conditions: literature; cited from earlier work

T1 sequence (P50406 whole entry): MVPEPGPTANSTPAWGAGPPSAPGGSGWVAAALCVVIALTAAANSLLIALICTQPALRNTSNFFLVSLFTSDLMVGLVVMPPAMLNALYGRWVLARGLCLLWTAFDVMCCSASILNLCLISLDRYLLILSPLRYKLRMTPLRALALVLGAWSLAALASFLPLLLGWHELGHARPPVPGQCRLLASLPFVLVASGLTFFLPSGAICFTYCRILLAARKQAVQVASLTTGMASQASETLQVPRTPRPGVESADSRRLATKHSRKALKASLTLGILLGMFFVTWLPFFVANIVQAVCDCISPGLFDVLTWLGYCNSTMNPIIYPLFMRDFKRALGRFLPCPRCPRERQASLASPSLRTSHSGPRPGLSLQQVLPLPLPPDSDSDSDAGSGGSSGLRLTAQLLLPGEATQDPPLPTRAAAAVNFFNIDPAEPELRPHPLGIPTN

COc1ccc2c(c1)c(C)cn2S(=O)(=O)c1ccc(OC)c(NCCN(C)C)c1 [Example 1, N′-[2-Methoxy-5-(5-methoxy-3-methylindole-1-sulfonyl)phenyl]-N,N-dimethyl ethane-1,2-diamine]
inhibition at 0.1 µM (Human 5-HT6 receptor): 82.9%

COc1ccc2c(c1)c(Cl)cn2S(=O)(=O)c1ccc(OC)c(NCCN(C)C)c1 [Example 2, N′-[5-(3-Chloro-5-methoxyindole-1-sulfonyl)-2-methoxyphenyl]-N,N-dimethyl ethane-1,2-diamine]
inhibition at 0.1 µM (Human 5-HT6 receptor): 84.9%

COc1ccc(S(=O)(=O)n2cc(Cl)c3ccccc32)cc1NCCN(C)C [Example 3, N′-[5-(3-Chloroindole-1-sulfonyl)-2-methoxyphenyl]-N,N-dimethyl ethane-1,2-diamine]
inhibition at 0.1 µM (Human 5-HT6 receptor): 95.6% | Ki (Human 5-HT6 receptor): 3.02 nM

COc1ccc(S(=O)(=O)n2ccc3ccccc32)cc1NCCN(C)C [Example 4, N′-[5-(Indole-1-sulfonyl)-2-methoxyphenyl]-N,N-dimethyl ethane-1,2-diamine]
inhibition at 0.1 µM (Human 5-HT6 receptor): 90.5% | Ki (Human 5-HT6 receptor): 1.22 nM | AUC(0-t) ([1]; Intravenous): 1870 ± 338 ng·h/mL | Cmax ([1]; Intravenous): 1590 ± 538 ng/mL | Tmax ([1]; Intravenous): 0.08 h | half-life ([1]; Intravenous): 2.93 ± 1.29 h | bioavailability [1]: 5 ± 2% | AUC(0-t) ([1]; Oral): 88 ± 48 ng·h/mL | Cmax ([1]; Oral): 41 ± 19 ng/mL | Tmax ([1]; Oral): 0.58 ± 0.38 h | half-life ([1]; Oral): 1.95 ± 0.73 h | Kp [2]: 20.2 ± 1.84

COc1ccc(S(=O)(=O)n2cc(C)c3ccccc32)cc1NCCN(C)C [Example 5, N′-[2-Methoxy-5-(3-methylindole-1-sulfonyl)phenyl]-N,N-dimethyl ethane-1,2-diamine]
inhibition at 0.1 µM (Human 5-HT6 receptor): 93% | Ki (Human 5-HT6 receptor): 1.52 nM | AUC(0-t) ([1]; Intravenous): 2860 ± 442 ng·h/mL | Cmax ([1]; Intravenous): 1960 ± 458 ng/mL | Tmax ([1]; Intravenous): 0.08 h | half-life ([1]; Intravenous): 3.37 ± 0.29 h | bioavailability [1]: 6 ± 1% | AUC(0-t) ([1]; Oral): 158 ± 20 ng·h/mL | Cmax ([1]; Oral): 36 ± 8 ng/mL | Tmax ([1]; Oral): 1.33 ± 0.58 h | half-life ([1]; Oral): 2.27 ± 0.2 h | Kp [2]: 13.5 ± 4.28 | NORT Discriminative Index (DI), treatment (Male Wister rats; 10 mg/kg): 0.46 (0.52) | NORT Discriminative Index (DI), treatment (Male Wister rats; 30 mg/kg): 0.58 (0.56) | NORT Inference (Male Wister rats): Active | Scopolamine Induced Reversal (active dose) (rats): ≧3 mg/kg, p.o.

COc1ccc2c(c1)c(C)cn2S(=O)(=O)c1ccc(C)c(NCCN(C)C)c1 [Example 8, N′-[5-(5-Methoxy-3-methylindole-1-sulfonyl)-2-methylphenyl]-N,N-dimethyl ethane-1,2-diamine]
Ki (Human 5-HT6 receptor): 17.3 nM

COc1ccc2c(ccn2S(=O)(=O)c2ccc(C)c(NCCCN(C)C)c2)c1 [Example 9, N′-[5-(5-Methoxyindole-1-sulfonyl)-2-methylphenyl]-N,N-dimethyl propane-1,3-diamine]
Ki (Human 5-HT6 receptor): 41 nM

CCc1ccc(S(=O)(=O)n2ccc3cc(F)ccc32)cc1NCCN(C)C [Example 13, N′-[2-Ethyl-5-(5-fluoroindole-1-sulfonyl)phenyl]-N,N-dimethyl ethane-1,2-diamine]
inhibition at 0.1 µM (Human 5-HT6 receptor): 70.7%

CCc1ccc(S(=O)(=O)n2cc(C)c3cc(OC)ccc32)cc1NCCN(C)C [Example 15, N′-[2-Ethyl-5-(5-methoxy-3-methylindole-1-sulfonyl)phenyl]-N,N-dimethyl ethane-1,2-diamine]
inhibition at 0.1 µM (Human 5-HT6 receptor): 56.4%

Cc1ccc(S(=O)(=O)n2ccc3ccc(Cl)cc32)cc1NCCN(C)C [Example 20, N′-[5-(6-Chloroindole-1-sulfonyl)-2-methylphenyl]-N,N-dimethyl ethane-1,2-diamine]
inhibition at 0.1 µM (Human 5-HT6 receptor): 100%

CN(C)CCNc1cccc(S(=O)(=O)n2ccc3ccc(Cl)cc32)c1 [Example 23, N′-[3-(6-Chloroindole-1-sulfonyl)phenyl]-N,N-dimethyl ethane-1,2-diamine]
inhibition at 0.1 µM (Human 5-HT6 receptor): 96%

CCc1ccc(S(=O)(=O)n2ccc3cc(OC)ccc32)cc1NCCN(C)C [Example 26, N′-[2-Ethyl-5-(5-methoxyindole-1-sulfonyl)phenyl]-N,N-dimethyl ethane-1,2-diamine]
inhibition at 0.1 µM (Human 5-HT6 receptor): 76%

COc1ccc(S(=O)(=O)n2cc(C)c3ccccc32)cc1NCCCN(C)C [Example 31, N′-[2-Methoxy-5-(3-methylindole-1-sulfonyl)phenyl]-N,N-dimethyl propane-1,3-diamine]
Ki (Human 5-HT6 receptor): 2.92 nM | AUC(0-t) ([1]; Intravenous): 3480 ± 650 ng·h/mL | Cmax ([1]; Intravenous): 1730 ± 682 ng/mL | Tmax ([1]; Intravenous): 0.08 h | half-life ([1]; Intravenous): 2.72 ± 0.4 h | bioavailability [1]: 19 ± 7% | AUC(0-t) ([1]; Oral): 674 ± 320 ng·h/mL | Cmax ([1]; Oral): 140 ± 76.8 ng/mL | Tmax ([1]; Oral): 2.33 ± 1.53 h | half-life ([1]; Oral): 5.06 ± 3.28 h | Kp [2]: 3.48 ± 0.27 | NORT Discriminative Index (DI), treatment (Male Wister rats; 10 mg/kg): 0.54 (0.48) | NORT Discriminative Index (DI), treatment (Male Wister rats; 30 mg/kg): 0.52 (0.52) | NORT Inference (Male Wister rats): Active | Scopolamine Induced Reversal (active dose) (rats): ≧30 mg/kg, p.o.

COc1ccc(S(=O)(=O)n2cc(C)c3cc(F)ccc32)cc1NCCCN(C)C [Example 33, N′-[2-Methoxy-5-(5-fluoro-3-methylindole-1-sulfonyl)phenyl]-N,N-dimethyl propane-1,3-diamine]
Ki (Human 5-HT6 receptor): 7.34 nM

COc1ccc2c(c1)c(C)cn2S(=O)(=O)c1ccc(OC)c(NCCCN(C)C)c1 [Example 35, N′-[2-Methoxy-5-(5-methoxy-3-methylindole-1-sulfonyl)phenyl]-N,N-dimethyl propane-1,3-diamine]
Ki (Human 5-HT6 receptor): 18.9 nM

COc1ccc(NS(=O)(=O)c2sc3ccc(Cl)cc3c2C)cc1N1CCNCC1 [SB-271046, 5-Chloro-N-(4-methoxy-3-piperazin-1-ylphenyl)-3-methyl-2-benzothiophenesulfonamide]
Activity in animal tests related to positive or negative symptoms of schizophrenia [3]: inactive

CN(C)CCC=C1c2ccccc2CCc2ccccc21 [amitriptyline]
Affinity for the 5-HT6 receptor (5-HT6 receptor): high affinity

CN1CCN2c3ccccc3Cc3ccccc3C2C1 (centres unmarked) [mianserin]
Affinity for the 5-HT6 receptor (5-HT6 receptor): high affinity
